Experimental data: PMC6249039 (Journal of medicinal chemistry, 2018)

Target: influenza PA endonuclease (PAN) (Influenza A virus, UniProt C3W5S0, DEL52-63/E64G)
Assay type: biochemical, influenza A (A/California/04/2009) H1N1

SMILES | Change in activity with presence or absence of excess metal ions
Cc1cc(=O)c(O)c(C(=O)O)o1 [Compound 1, 3-Hydroxy-6-methyl-4-oxo-4H-pyran-2-carboxylic acid] | no change
Cc1cc(=O)c(O)c(C(=O)O)[nH]1 [Compound 17, 3-Hydroxy-6-methyl-4-oxo-1,4-dihydropyridine-2-carboxylic acid] | no change
